# Source: US9364455B2, “Combination of a prostaglandin receptor agonist and an MC1R receptor agonist for the treatment and/or prevention of pigmentation disorders” (GALDERMA RESEARCH & DEVELOPMENT, priority 2011, dated 2016)
# Test system: tail skin of SKH2 mice
# Experiment: Propigmenting activity by topical application on the tail of SKH2 mice (clinical pigmentation score, luminance by colorimeter)
# Type: in vivo
# Settings: 5 days per week for 57 days, 0.01% travoprost, MC1R agonist A at 7%, B at 8%, compared with carrier group (combinations also with 0.01% travoprost alone)
# Excerpt: In mice, melanocytes are not present in the epidermis of the areas covered with hair and are mainly present in the hair follicles. The tail skin of SKH2 mice is pigmented, which is of particular interest for evaluating the effect of topical agents on skin pigmentation. The pigmentation modifications induced by these topical compounds can be quantified by various means, for instance the clinical score of the pigmentation and the measurement of the tail color using a colorimeter. The evaluation of the propigmenting activity of 0.01% travoprost alone or in combination with MC1R receptor agonists: compound A at 7% or compound B at 8%, is carried out by topical application on the tail of SKH2 mice for 57 days. The treatment is carried out 5 days per week for 57 days. 20 μl of the test product diluted in the carrier 145 are applied to the tail. In the case of the combinations, 20 μl of the MC1R agonist solution are applied after the treatment with 20 μl of the 0.01% travoprost solution. The clinical score of the animals is recorded once a week before irradiation; the pigmentation is evaluated by virtue of a score on a scale of 0 to 4. […]
compound,measurement,value
CC(C)OC(=O)CCC/C=C\C[C@@H]1[C@@H](/C=C/[C@@H](O)COc2cccc(C(F)(F)F)c2)[C@H](O)C[C@@H]1O [travoprost],clinical score for pigmentation (natural pigmentation of the tail skin),moderately increases the natural pigmentation of the tail skin as early as day 36
